Source: ChEMBL document CHEMBL4507296 (2021)

Legend:
[1] = molecular target: 5-hydroxytryptamine receptor 2B (Homo sapiens) (UniProt P41595); assay: Serotonin 5-HT2b (human) CEREP ligand profiling; conditions: Compound concentration 10.0 uM
[2] = molecular target: Tyrosine-protein kinase receptor UFO (Homo sapiens) (UniProt P30530); conditions: Compound concentration 1000.0 nM
[3] = molecular target: Protein-tyrosine kinase 6 (Homo sapiens) (UniProt Q13882); conditions: Compound concentration 1000.0 nM
[4] = molecular target: Calcium/calmodulin-dependent protein kinase type 1 (Homo sapiens) (UniProt Q14012); conditions: Compound concentration 1000.0 nM
[5] = molecular target: Peripheral plasma membrane protein CASK (Homo sapiens) (UniProt O14936); conditions: Compound concentration 1000.0 nM
[6] = molecular target: Dual specificity protein kinase CLK4 (Homo sapiens) (UniProt Q9HAZ1); conditions: Compound concentration 1000.0 nM
[7] = molecular target: Ephrin type-A receptor 7 (Homo sapiens) (UniProt Q15375); conditions: Compound concentration 1000.0 nM
[8] = molecular target: Ephrin type-B receptor 4 (Homo sapiens) (UniProt P54760); conditions: Compound concentration 1000.0 nM
[9] = molecular target: Mitogen-activated protein kinase 6 (Homo sapiens) (UniProt Q16659); conditions: Compound concentration 1000.0 nM
[10] = molecular target: Fibroblast growth factor receptor 2 (Homo sapiens) (UniProt P21802); conditions: Compound concentration 1000.0 nM
[11] = molecular target: Fibroblast growth factor receptor 4 (Homo sapiens) (UniProt P22455); conditions: Compound concentration 1000.0 nM
[12] = test system: Receptor-type tyrosine-protein kinase FLT3 (Homo sapiens), P36888 [UNDEFINED MUTATION]; conditions: Compound concentration 1000.0 nM
[13] = molecular target: Cyclin-G-associated kinase (Homo sapiens) (UniProt O14976); conditions: Compound concentration 1000.0 nM
[14] = molecular target: Insulin-like growth factor 1 receptor (Homo sapiens) (UniProt P08069); conditions: Compound concentration 1000.0 nM
[15] = molecular target: Insulin receptor (Homo sapiens) (UniProt P06213); conditions: Compound concentration 1000.0 nM
[16] = molecular target: Interleukin-1 receptor-associated kinase 3 (Homo sapiens) (UniProt Q9Y616); conditions: Compound concentration 1000.0 nM
[17] = molecular target: Mitogen-activated protein kinase 9 (Homo sapiens) (UniProt P45984); conditions: Compound concentration 1000.0 nM
[18] = molecular target: LIM domain kinase 2 (Homo sapiens) (UniProt P53671); conditions: Compound concentration 1000.0 nM
[19] = molecular target: Mitogen-activated protein kinase kinase kinase kinase 2 (Homo sapiens) (UniProt Q12851); conditions: Compound concentration 1000.0 nM
[20] = molecular target: Dual specificity mitogen-activated protein kinase kinase 5 (Homo sapiens) (UniProt Q13163); conditions: Compound concentration 1000.0 nM
[21] = molecular target: Serine/threonine-protein kinase Nek6 (Homo sapiens) (UniProt Q9HC98); conditions: Compound concentration 1000.0 nM
[22] = molecular target: Serine/threonine-protein kinase OSR1 (Homo sapiens) (UniProt O95747); conditions: Compound concentration 1000.0 nM
[23] = molecular target: Serine/threonine-protein kinase PAK 1 (Homo sapiens) (UniProt Q13153); conditions: Compound concentration 1000.0 nM
[24] = molecular target: Serine/threonine-protein kinase PAK 3 (Homo sapiens) (UniProt O75914); conditions: Compound concentration 1000.0 nM
[25] = molecular target: Phosphatidylinositol 4-phosphate 5-kinase type-1 gamma (Homo sapiens) (UniProt O60331); conditions: Compound concentration 1000.0 nM
[26] = molecular target: Receptor-interacting serine/threonine-protein kinase 2 (Homo sapiens) (UniProt O43353); conditions: Compound concentration 1000.0 nM
[27] = molecular target: Ribosomal protein S6 kinase alpha-5 (Homo sapiens) (UniProt O75582); conditions: Compound concentration 1000.0 nM
[28] = molecular target: Ribosomal protein S6 kinase alpha-1 (Homo sapiens) (UniProt Q15418); conditions: Compound concentration 1000.0 nM
[29] = molecular target: Ribosomal protein S6 kinase alpha-3 (Homo sapiens) (UniProt P51812); conditions: Compound concentration 1000.0 nM
[30] = molecular target: Ribosomal protein S6 kinase alpha-2 (Homo sapiens) (UniProt Q15349); conditions: Compound concentration 1000.0 nM
[31] = molecular target: Proto-oncogene tyrosine-protein kinase Src (Homo sapiens) (UniProt P12931); conditions: Compound concentration 1000.0 nM
[32] = molecular target: SRSF protein kinase 3 (Homo sapiens) (UniProt Q9UPE1); conditions: Compound concentration 1000.0 nM
[33] = molecular target: Serine/threonine-protein kinase tousled-like 1 (Homo sapiens) (UniProt Q9UKI8); conditions: Compound concentration 1000.0 nM
[34] = molecular target: Serine/threonine-protein kinase TNNI3K (Homo sapiens) (UniProt Q59H18); conditions: Compound concentration 1000.0 nM
[35] = molecular target: Wee1-like protein kinase (Homo sapiens) (UniProt P30291); conditions: Compound concentration 1000.0 nM
[36] = molecular target: Mitogen-activated protein kinase kinase kinase 19 (Homo sapiens) (UniProt Q56UN5); conditions: Compound concentration 1000.0 nM
[37] = molecular target: 5-hydroxytryptamine receptor 1D (Homo sapiens) (UniProt P28221); conditions: Compound concentration 10.0 uM
[38] = molecular target: T1, Alpha-2B adrenergic receptor (Homo sapiens) (UniProt P18089); conditions: Compound concentration 10.0 uM
T1 sequence (whole entry): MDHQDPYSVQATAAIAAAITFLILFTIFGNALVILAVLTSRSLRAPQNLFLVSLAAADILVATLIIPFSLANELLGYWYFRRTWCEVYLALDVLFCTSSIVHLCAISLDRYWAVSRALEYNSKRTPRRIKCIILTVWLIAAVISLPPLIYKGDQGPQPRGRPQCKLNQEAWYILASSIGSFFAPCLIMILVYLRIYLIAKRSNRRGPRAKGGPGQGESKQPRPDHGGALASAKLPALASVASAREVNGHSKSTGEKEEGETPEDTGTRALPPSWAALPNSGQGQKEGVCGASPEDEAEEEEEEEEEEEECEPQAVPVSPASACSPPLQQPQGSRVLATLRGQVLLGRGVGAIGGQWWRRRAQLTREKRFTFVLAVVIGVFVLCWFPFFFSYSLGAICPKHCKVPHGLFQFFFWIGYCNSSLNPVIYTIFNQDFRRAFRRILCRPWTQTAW

[39] = molecular target: Muscarinic acetylcholine receptor M2 (Homo sapiens) (UniProt P08172); conditions: Compound concentration 10.0 uM

Sequence of Mitogen-activated protein kinase kinase kinase kinase 2 (Homo sapiens) (Q12851 whole entry): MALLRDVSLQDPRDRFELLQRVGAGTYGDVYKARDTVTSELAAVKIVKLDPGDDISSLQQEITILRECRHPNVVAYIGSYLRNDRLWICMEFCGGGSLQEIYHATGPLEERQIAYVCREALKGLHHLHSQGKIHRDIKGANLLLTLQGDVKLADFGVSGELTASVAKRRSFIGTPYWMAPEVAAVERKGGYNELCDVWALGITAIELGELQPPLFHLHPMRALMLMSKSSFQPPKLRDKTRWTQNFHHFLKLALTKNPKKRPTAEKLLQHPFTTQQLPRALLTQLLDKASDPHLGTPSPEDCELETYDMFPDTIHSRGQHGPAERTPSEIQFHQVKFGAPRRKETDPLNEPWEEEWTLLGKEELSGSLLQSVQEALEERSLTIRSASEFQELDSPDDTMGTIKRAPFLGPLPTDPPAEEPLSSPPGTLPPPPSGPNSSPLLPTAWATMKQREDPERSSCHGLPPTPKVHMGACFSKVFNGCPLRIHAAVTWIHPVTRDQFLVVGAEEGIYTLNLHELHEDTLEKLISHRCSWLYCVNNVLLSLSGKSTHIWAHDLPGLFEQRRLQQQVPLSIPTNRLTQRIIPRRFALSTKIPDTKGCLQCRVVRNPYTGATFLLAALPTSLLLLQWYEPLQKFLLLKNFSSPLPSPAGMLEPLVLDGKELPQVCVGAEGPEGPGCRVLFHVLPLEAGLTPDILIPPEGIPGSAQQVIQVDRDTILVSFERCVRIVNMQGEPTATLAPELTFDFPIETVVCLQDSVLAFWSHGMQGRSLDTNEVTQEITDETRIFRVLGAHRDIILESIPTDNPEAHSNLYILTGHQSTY
Sequence of Mitogen-activated protein kinase 9 (Homo sapiens) (P45984 whole entry, looked up, the tested form may be a part): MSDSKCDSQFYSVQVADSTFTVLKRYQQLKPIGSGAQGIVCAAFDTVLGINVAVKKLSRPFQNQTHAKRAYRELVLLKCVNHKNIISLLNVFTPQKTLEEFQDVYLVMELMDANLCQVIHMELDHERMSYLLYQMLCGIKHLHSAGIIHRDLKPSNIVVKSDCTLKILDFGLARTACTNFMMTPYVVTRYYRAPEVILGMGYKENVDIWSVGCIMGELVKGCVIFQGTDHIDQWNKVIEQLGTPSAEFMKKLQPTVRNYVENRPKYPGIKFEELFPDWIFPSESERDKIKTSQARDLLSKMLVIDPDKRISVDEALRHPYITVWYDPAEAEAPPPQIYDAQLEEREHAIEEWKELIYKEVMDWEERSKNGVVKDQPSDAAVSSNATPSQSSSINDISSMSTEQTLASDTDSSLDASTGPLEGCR
Sequence of Wee1-like protein kinase (Homo sapiens) (P30291 whole entry, looked up): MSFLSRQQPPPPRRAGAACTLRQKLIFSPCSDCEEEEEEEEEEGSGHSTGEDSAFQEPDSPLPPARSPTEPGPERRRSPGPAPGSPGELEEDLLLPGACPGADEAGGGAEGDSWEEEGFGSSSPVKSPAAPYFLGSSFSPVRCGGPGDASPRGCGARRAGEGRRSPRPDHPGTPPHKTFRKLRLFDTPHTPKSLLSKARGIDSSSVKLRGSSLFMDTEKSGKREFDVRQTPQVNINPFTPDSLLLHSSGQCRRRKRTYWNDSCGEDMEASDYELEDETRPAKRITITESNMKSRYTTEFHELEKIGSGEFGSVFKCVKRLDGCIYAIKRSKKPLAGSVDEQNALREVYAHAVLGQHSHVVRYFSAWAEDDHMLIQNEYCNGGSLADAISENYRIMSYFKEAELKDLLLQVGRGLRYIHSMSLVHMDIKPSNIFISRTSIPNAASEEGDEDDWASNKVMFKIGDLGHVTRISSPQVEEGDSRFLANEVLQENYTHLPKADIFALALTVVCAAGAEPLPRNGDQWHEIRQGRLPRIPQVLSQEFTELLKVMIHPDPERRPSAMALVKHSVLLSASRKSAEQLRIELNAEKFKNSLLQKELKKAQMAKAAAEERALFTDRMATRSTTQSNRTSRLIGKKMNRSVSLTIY
Sequence of Serine/threonine-protein kinase PAK 3 (Homo sapiens) (O75914 whole entry, looked up): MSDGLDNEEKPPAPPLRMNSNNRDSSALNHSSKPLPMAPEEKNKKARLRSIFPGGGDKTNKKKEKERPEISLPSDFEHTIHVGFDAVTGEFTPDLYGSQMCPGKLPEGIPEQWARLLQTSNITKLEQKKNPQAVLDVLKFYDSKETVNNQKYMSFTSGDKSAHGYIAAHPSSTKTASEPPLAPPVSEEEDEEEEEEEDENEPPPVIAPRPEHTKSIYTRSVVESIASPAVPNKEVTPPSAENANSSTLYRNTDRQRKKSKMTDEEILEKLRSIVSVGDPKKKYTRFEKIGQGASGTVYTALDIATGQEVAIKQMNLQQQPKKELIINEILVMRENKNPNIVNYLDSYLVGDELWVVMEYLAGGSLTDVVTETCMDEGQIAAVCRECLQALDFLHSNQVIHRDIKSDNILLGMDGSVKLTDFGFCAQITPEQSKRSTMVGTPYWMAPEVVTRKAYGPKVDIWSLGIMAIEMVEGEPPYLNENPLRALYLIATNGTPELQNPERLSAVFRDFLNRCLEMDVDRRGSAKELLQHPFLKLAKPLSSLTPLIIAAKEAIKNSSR
Sequence of Dual specificity protein kinase CLK4 (Homo sapiens) (Q9HAZ1 whole entry, looked up): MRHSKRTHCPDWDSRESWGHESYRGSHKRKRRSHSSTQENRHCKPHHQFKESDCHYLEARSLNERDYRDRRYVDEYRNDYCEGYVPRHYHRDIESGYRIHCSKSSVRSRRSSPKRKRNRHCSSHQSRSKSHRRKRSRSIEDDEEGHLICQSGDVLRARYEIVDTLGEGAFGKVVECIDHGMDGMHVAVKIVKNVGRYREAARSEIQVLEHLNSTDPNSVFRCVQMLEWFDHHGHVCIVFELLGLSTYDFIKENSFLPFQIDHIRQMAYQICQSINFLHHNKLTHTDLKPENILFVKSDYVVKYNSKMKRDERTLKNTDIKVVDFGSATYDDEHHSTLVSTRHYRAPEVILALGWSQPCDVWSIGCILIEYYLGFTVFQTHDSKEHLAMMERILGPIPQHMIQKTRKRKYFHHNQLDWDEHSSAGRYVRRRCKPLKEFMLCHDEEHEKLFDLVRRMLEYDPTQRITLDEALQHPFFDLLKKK
Sequence of Serine/threonine-protein kinase OSR1 (Homo sapiens) (O95747 2-527 limits assumed): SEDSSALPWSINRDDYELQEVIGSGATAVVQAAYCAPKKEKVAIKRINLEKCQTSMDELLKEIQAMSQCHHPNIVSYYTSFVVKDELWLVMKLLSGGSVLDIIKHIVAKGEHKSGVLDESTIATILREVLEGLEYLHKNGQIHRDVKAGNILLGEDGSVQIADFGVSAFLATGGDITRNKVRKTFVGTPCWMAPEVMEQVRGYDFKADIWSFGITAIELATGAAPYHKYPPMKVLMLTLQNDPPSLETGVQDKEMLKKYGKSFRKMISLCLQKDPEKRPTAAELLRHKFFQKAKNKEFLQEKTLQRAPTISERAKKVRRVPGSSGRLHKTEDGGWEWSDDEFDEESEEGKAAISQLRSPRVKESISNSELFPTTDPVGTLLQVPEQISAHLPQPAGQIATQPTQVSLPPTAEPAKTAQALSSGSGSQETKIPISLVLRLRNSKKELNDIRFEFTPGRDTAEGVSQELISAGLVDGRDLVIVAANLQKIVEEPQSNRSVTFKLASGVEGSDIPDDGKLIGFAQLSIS
Sequence of Peripheral plasma membrane protein CASK (Homo sapiens) (O14936 whole entry): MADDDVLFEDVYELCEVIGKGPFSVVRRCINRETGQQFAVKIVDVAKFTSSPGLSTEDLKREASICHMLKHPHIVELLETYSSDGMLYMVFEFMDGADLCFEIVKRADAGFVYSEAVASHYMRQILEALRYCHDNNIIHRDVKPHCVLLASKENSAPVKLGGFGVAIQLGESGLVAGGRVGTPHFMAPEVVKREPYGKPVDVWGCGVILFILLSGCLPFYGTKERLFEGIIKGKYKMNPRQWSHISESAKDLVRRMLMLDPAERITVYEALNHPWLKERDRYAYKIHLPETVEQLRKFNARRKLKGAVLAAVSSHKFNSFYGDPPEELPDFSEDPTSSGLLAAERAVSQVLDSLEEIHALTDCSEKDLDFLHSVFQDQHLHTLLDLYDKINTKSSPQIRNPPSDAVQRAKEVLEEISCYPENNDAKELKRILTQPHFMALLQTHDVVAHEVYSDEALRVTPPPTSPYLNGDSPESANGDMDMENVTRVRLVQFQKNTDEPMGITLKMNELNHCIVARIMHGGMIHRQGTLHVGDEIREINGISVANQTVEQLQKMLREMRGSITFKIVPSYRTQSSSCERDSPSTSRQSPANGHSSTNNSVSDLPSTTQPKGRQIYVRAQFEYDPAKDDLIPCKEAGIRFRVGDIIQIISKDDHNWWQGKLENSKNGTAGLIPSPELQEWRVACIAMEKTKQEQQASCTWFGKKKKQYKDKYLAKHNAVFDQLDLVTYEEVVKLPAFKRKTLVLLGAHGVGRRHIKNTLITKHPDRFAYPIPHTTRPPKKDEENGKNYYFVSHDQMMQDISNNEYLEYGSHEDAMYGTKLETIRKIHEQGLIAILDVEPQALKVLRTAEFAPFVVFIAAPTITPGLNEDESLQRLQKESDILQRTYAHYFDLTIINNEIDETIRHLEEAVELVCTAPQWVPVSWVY
Sequence of Serine/threonine-protein kinase PAK 1 (Homo sapiens) (Q13153 whole entry): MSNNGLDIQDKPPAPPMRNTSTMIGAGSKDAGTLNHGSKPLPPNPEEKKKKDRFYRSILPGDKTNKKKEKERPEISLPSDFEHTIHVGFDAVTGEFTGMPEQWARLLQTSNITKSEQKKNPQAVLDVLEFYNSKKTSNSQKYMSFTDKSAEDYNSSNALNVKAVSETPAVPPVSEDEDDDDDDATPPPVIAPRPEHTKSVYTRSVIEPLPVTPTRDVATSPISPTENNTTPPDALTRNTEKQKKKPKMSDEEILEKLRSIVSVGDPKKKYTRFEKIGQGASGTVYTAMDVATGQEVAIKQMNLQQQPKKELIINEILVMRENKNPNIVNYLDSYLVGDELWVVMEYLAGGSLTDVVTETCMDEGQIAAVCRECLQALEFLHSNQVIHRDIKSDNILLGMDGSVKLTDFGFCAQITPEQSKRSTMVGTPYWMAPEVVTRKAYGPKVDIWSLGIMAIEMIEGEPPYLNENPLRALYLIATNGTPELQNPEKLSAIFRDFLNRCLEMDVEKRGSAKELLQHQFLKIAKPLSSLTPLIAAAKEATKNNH

C[C@H](c1ccc(F)cc1)N(Cc1cccc(C(=O)O)c1)C(=O)c1cnc2ccccc2c1 [PF-05105679]
inactive: inhibition [1] 26% | residual activity [2] 100% | residual activity [3] 83% | residual activity [4] 100% | residual activity [5] 86% | residual activity [6] 66% | residual activity [7] 80% | residual activity [8] 100% | residual activity [9] 100% | residual activity [10] 74% | residual activity [11] 91% | residual activity [12] 99% | residual activity [13] 98% | residual activity [14] 100% | residual activity [15] 100% | residual activity [16] 100% | residual activity [17] 81% | residual activity [18] 100% | residual activity [19] 100% | residual activity [20] 92% | residual activity [21] 92% | residual activity [22] 100% | residual activity [23] 100% | residual activity [24] 96% | residual activity [25] 100% | residual activity [26] 82% | residual activity [27] 98% | residual activity [28] 100% | residual activity [29] 89% | residual activity [30] 100% | residual activity [31] 100% | residual activity [32] 92% | residual activity [33] 97% | residual activity [34] 97% | residual activity [35] 96% | residual activity [36] 72% | inhibition [37] -1.68% | inhibition [38] 20.2% | inhibition [39] 12.6%
